According to US20260216149A1, “USE OF DIAZAPHENANTHRENE PROTONATED DIMER” (XI’AN LIZE TECHNOLOGY PROJECT INVESTMENT CO., LTD., priority 2023, published 2026):

Experiments:
A. flavus = test: Tests for MIC and MFC; type: cell-based, Aspergillus flavus; conditions: unit assumed; for MIC: 12 h culture, absorbance 600 nm; for MFC: subculture further 12 h
S. enteritidis = test: Tests for MIC and MBC; type: cell-based, Salmonella enteritidis; conditions: unit assumed; for MIC: 12 h culture, absorbance 600 nm; for MBC: subculture further 12 h
M. furfur = test: Tests for MIC and MFC; type: cell-based, Malassezia furfur; conditions: unit assumed; for MIC: 12 h culture, absorbance 600 nm; for MFC: subculture further 12 h
S. epidermidis = test: Tests for MIC and MBC; type: cell-based, Staphylococcus epidermidis; conditions: unit assumed; for MIC: 12 h culture, absorbance 600 nm; for MBC: subculture further 12 h
C. albicans = test: Tests for MIC and MFC; type: cell-based, Candida albicans; conditions: unit assumed; for MIC: 12 h culture, absorbance 600 nm; for MFC: subculture further 12 h
L. monocytogenes = test: Tests for MIC and MBC; type: cell-based, Listeria monocytogenes; conditions: unit assumed; for MIC: 12 h culture, absorbance 600 nm; for MBC: subculture further 12 h
C. neoformans = test: Tests for MIC and MFC; type: cell-based, Cryptococcus neoformans; conditions: unit assumed; for MIC: 12 h culture, absorbance 600 nm; for MFC: subculture further 12 h
M. globosa = test: Tests for MIC and MFC; type: cell-based, Malassezia globosa; conditions: unit assumed; for MIC: 12 h culture, absorbance 600 nm; for MFC: subculture further 12 h
B. cereus = test: Tests for MIC and MBC; type: cell-based, Bacillus cereus; conditions: unit assumed; for MIC: 12 h culture, absorbance 600 nm; for MBC: subculture further 12 h
S. bovis = test: Tests for MIC and MBC; type: cell-based, Streptococcus bovis; conditions: unit assumed; for MIC: 12 h culture, absorbance 600 nm; for MBC: subculture further 12 h
C. diphtheriae = conditions: 12 h culture, absorbance 600 nm
K. pneumoniae = test: Tests for MIC and MBC; type: cell-based, Klebsiella pneumoniae; conditions: unit assumed; for MIC: 12 h culture, absorbance 600 nm; for MBC: subculture further 12 h
P. fluorescens = test: Tests for MIC and MBC; type: cell-based, Pseudomonas fluorescens; conditions: unit assumed; for MIC: 12 h culture, absorbance 600 nm; for MBC: subculture further 12 h
T. rubrum = test: Tests for MIC and MFC; type: cell-based, Trichophyton rubrum; conditions: unit assumed; for MIC: 12 h culture, absorbance 600 nm; for MFC: subculture further 12 h
Y. enterocolitis = test: Tests for MIC and MBC; type: cell-based, Yersinia enterocolitis; conditions: unit assumed; for MIC: 12 h culture, absorbance 600 nm; for MBC: subculture further 12 h
P. aeruginosa = test: Tests for MIC and MBC; type: cell-based, Pseudomonas aeruginosa; conditions: unit assumed; for MIC: 12 h culture, absorbance 600 nm; for MBC: subculture further 12 h
E. coli = conditions: 12 h culture, absorbance 600 nm
S. mutans = test: Tests for MIC and MBC; type: cell-based, Streptococcus mutans; conditions: unit assumed; for MIC: 12 h culture, absorbance 600 nm; for MBC: subculture further 12 h
P. vulgaris = test: Tests for MIC and MBC; type: cell-based, Proteus vulgaris; conditions: unit assumed; for MIC: 12 h culture, absorbance 600 nm; for MBC: subculture further 12 h
E. faecalis = test: Tests for MIC and MBC; type: cell-based, Enterococcus faecalis; conditions: unit assumed; for MIC: 12 h culture, absorbance 600 nm; for MBC: subculture further 12 h
S. lactis = test: Tests for MIC and MBC; type: cell-based, Streptococcus lactis; conditions: unit assumed; for MIC: 12 h culture, absorbance 600 nm; for MBC: subculture further 12 h
A. niger = test: Tests for MIC and MFC; type: cell-based, Aspergillus niger; conditions: unit assumed; for MIC: 12 h culture, absorbance 600 nm; for MFC: subculture further 12 h
C. perfringens = conditions: 12 h culture, absorbance 600 nm
B. subtilis = test: Tests for MIC and MBC; type: cell-based, Bacillus subtilis; conditions: unit assumed; for MIC: 12 h culture, absorbance 600 nm; for MBC: subculture further 12 h
S. thermophilus = test: Tests for MIC and MBC; type: cell-based, Streptococcus thermophilus; conditions: unit assumed; for MIC: 12 h culture, absorbance 600 nm; for MBC: subculture further 12 h
H. staphylococcus = test: Tests for MIC and MBC; type: cell-based, hemolytic staphylococcus; conditions: unit assumed; for MIC: 12 h culture, absorbance 600 nm; for MBC: subculture further 12 h
S. aureus = conditions: 12 h culture, absorbance 600 nm
[1] = tested on: Mouse melanoma B16 cell line; test: IC50 determination (CCK-8); type: cell-based; conditions: B16, RPMI 1640, treated 8 h
Experimental: (§1) The cells were washed with PBS (pH 7.4), added with a CCK-8 solution (Beijing Beyotime Biotechnology) to each well according to the instructions, and then incubated for 4 h.

[2] = tested on: Human neuroglioma U521MG cell Line; test: IC50 determination (CCK-8); type: cell-based; conditions: DMEM HG, treated 8 h
Experimental: as §1

[3] = tested on: Human neuroblastoma SH-SY5Y cell line; test: IC50 determination (CCK-8); type: cell-based; conditions: DMEM/F12, treated 8 h
Experimental: as §1

[4] = tested on: Human lung adenocarcinoma A549 cell line; test: IC50 determination (CCK-8); type: cell-based; conditions: A549, DMEM HG, treated 8 h
Experimental: as §1

[5] = tested on: Mouse liver cancer H22 cell line; test: IC50 determination (CCK-8); type: cell-based; conditions: H22, RPMI 1640, treated 8 h
Experimental: as §1

Cryptococcus neoformans = test: Test for Cryptococcus-infected mice; type: in vivo; conditions: Example 1 2, 4, 8 mg/kg iv, fluconazole 8 mg/kg ip

SMILES: O=S(=O)(O)O.c1cnc2c(c1)ccc1cccnc12.c1cnc2c(c1)ccc1cccnc12.c1cnc2c(c1)ccc1cccnc12.c1cnc2c(c1)ccc1cccnc12 [Example 3]
- MIC (A. flavus): 0.5 µg/mL
- MFC (A. flavus): 6 µg/mL
- MIC (S. enteritidis): 1 µg/mL
- MBC (S. enteritidis): 5 µg/mL
- MIC (M. furfur): 1 µg/mL
- MFC (M. furfur): 6 µg/mL
- MIC (S. epidermidis): 0.5 µg/mL
- MBC (S. epidermidis): 3 µg/mL
- MIC (C. albicans): 0.5 µg/mL
- MFC (C. albicans): 9 µg/mL
- MIC (L. monocytogenes): 0.3 µg/mL
- MBC (L. monocytogenes): 1.5 µg/mL
- MIC (C. neoformans): 0.5 µg/mL
- MFC (C. neoformans): 6 µg/mL
- MIC (M. globosa): 2 µg/mL
- MFC (M. globosa): 12 µg/mL
- MIC (B. cereus): 2 µg/mL
- MBC (B. cereus): 9 µg/mL
- MIC (S. bovis): 0.8 µg/mL
- MBC (S. bovis): 3 µg/mL
- MIC (C. diphtheriae): 2
- MIC (K. pneumoniae): 1 µg/mL
- MBC (K. pneumoniae): 6 µg/mL
- MIC (P. fluorescens): 0.5 µg/mL
- MBC (P. fluorescens): 3 µg/mL
- MIC (T. rubrum): 2 µg/mL
- MFC (T. rubrum): 12 µg/mL
- MIC (Y. enterocolitis): 0.5 µg/mL
- MBC (Y. enterocolitis): 3 µg/mL
- MIC (P. aeruginosa): 0.5 µg/mL
- MBC (P. aeruginosa): 3 µg/mL
- MIC (E. coli): 0.5
- MIC (S. mutans): 1 µg/mL
- MBC (S. mutans): 5 µg/mL
- MIC (P. vulgaris): 1 µg/mL
- MBC (P. vulgaris): 6 µg/mL
- MIC (E. faecalis): 8 µg/mL
- MBC (E. faecalis): 30 µg/mL
- MIC (S. lactis): 1.5 µg/mL
- MBC (S. lactis): 6 µg/mL
- MIC (A. niger): 0.5 µg/mL
- MFC (A. niger): 6 µg/mL
- MIC (C. perfringens): 3
- MIC (B. subtilis): 0.6 µg/mL
- MBC (B. subtilis): 3 µg/mL
- MIC (S. thermophilus): 1 µg/mL
- MBC (S. thermophilus): 5 µg/mL
- MIC (H. staphylococcus): 0.2 µg/mL
- MBC (H. staphylococcus): 0.6 µg/mL
- MIC (S. aureus): 0.5

SMILES: F[P-](F)(F)(F)(F)F.O=[N+]([O-])c1cc2ccc[nH+]c2c2ncccc12.O=[N+]([O-])c1cc2cccnc2c2ncccc12 [Example 7]
- MIC (B. cereus): 0.5 µg/mL
- MBC (B. cereus): 4 µg/mL
- IC50 [1]: 320 µM
- IC50 [2]: 320 µM
- IC50 [3]: 32 µM
- IC50 [4]: 320 µM
- IC50 [5]: 320 µM

SMILES: F[Si-2](F)(F)(F)(F)F.c1cnc2c(c1)ccc1ccc[nH+]c12.c1cnc2c(c1)ccc1ccc[nH+]c12.c1cnc2c(c1)ccc1cccnc12.c1cnc2c(c1)ccc1cccnc12 [Example 2]
- MIC (A. flavus): 0.4 µg/mL
- MFC (A. flavus): 6 µg/mL
- MIC (S. enteritidis): 0.8 µg/mL
- MBC (S. enteritidis): 4 µg/mL
- MIC (M. furfur): 1 µg/mL
- MFC (M. furfur): 6 µg/mL
- MIC (S. epidermidis): 0.4 µg/mL
- MBC (S. epidermidis): 2.5 µg/mL
- MIC (C. albicans): 0.4 µg/mL
- MFC (C. albicans): 8 µg/mL
- MIC (L. monocytogenes): 0.3 µg/mL
- MBC (L. monocytogenes): 1.2 µg/mL
- MIC (C. neoformans): 0.4 µg/mL
- MFC (C. neoformans): 5 µg/mL
- MIC (M. globosa): 2 µg/mL
- MFC (M. globosa): 10 µg/mL
- MIC (B. cereus): 2 µg/mL
- MBC (B. cereus): 6 µg/mL
- MIC (S. bovis): 0.6 µg/mL
- MBC (S. bovis): 2 µg/mL
- MIC (C. diphtheriae): 1.6
- MIC (K. pneumoniae): 0.8 µg/mL
- MBC (K. pneumoniae): 5 µg/mL
- MIC (P. fluorescens): 0.4 µg/mL
- MBC (P. fluorescens): 3 µg/mL
- MIC (T. rubrum): 1.6 µg/mL
- MFC (T. rubrum): 10 µg/mL
- MIC (Y. enterocolitis): 0.4 µg/mL
- MBC (Y. enterocolitis): 2 µg/mL
- MIC (P. aeruginosa): 0.4 µg/mL
- MBC (P. aeruginosa): 2 µg/mL
- MIC (E. coli): 0.4
- MIC (S. mutans): 0.8 µg/mL
- MBC (S. mutans): 4 µg/mL
- MIC (P. vulgaris): 0.8 µg/mL
- MBC (P. vulgaris): 4 µg/mL
- MIC (E. faecalis): 6 µg/mL
- MBC (E. faecalis): 20 µg/mL
- MIC (S. lactis): 1.2 µg/mL
- MBC (S. lactis): 4 µg/mL
- MIC (A. niger): 0.4 µg/mL
- MFC (A. niger): 4 µg/mL
- MIC (C. perfringens): 2.5
- MIC (B. subtilis): 0.6 µg/mL
- MBC (B. subtilis): 2.5 µg/mL
- MIC (S. thermophilus): 0.8 µg/mL
- MBC (S. thermophilus): 4 µg/mL
- MIC (H. staphylococcus): 0.2 µg/mL
- MBC (H. staphylococcus): 0.5 µg/mL
- MIC (S. aureus): 0.4

SMILES: OC(Cn1cncn1)(Cn1cncn1)c1ccc(F)cc1F [fluconazole]
- pathological symptoms of brains and lungs (cerebral edema, pneumonia) (Cryptococcus neoformans): pathological symptoms were improved
- Cryptococcus-infected symptoms and weight (Cryptococcus neoformans; once a day for 9 days): the symptoms were improved, and the weight gained
